Test results published in US20260138958A1, “SUBSTITUTED N-PHENYLURACILS AND SALTS THEREOF, AND USE THEREOF AS HERBICIDAL ACTIVE SUBSTANCES” (Bayer Aktiengesellschaft, priority 2022, published 2026).
Blank lines part the entries; values can stand above or below the molecule they belong to.

What was measured:
Format in all cases: in vivo
[1] = test system: Triticum aestivum (TRZAS); experiment: Post-emergence crop plant compatibility, greenhouse pot test
Experimental: (§1) Seeds of monocotyledonous and dicotyledonous weeds and crop plants were placed in sandy loam in plastic or wood-fibre pots, covered with soil and cultivated in a greenhouse under controlled growth conditions. 2 to 3 weeks after sowing, the test plants were treated at the one-leaf stage. The compounds of the invention, formulated in the form of wettable powders (WP) or as emulsion concentrates (EC), were then sprayed onto the green parts of the plants as aqueous suspension or emulsion with addition of 0.5% additive at a water application rate of 600 l/ha (converted). After the test plants had been kept in the greenhouse under optimum growth conditions for about 3 weeks, the activity of the preparations was rated visually in comparison to untreated controls. For example, 100% activity=the plants have died, 0% activity=like control plants.
The observed effects on selected crop plants are reported here in comparison to the untreated controls (values in %).

[2] = test system: Tripleurospermum inodorum (MATIN); experiment: Post-emergence herbicidal action, greenhouse pot test
Experimental: as §1

[3] = test system: Digitaria sanguinalis (DIGSA); experiment: as above
Experimental: as §1

[4] = test system: Polygonum convolvulus (POLCO); experiment: as above
Experimental: as §1

[5] = test system: Abutilon theophrasti (ABUTH); experiment: as above
Experimental: as §1

Bassia scoparia (KCHSC) = experiment: as above
Experimental: as §1

[6] = test system: Echinochloa crus-galli (ECHCG); experiment: as above
Experimental: as §1

[7] = test system: Alopecurus myosuroides (ALOMY); experiment: as above
Experimental: as §1

Lolium rigidum (LOLRI) = experiment: as above
Experimental: as §1

Viola tricolor (VIOTR) = experiment: as above
Experimental: as §1

Setaria viridis (SETVI) = experiment: as above
Experimental: as §1

[8] = test system: Pharbitis purpurea (PHBPU); experiment: as above
Experimental: as §1

Veronica persica (VERPE) = experiment: as above
Experimental: as §1

[9] = test system: Amaranthus retroflexus (AMARE); experiment: as above
Experimental: as §1

Post-emergence effect at 1.25 g/ha against TRZAS in % ([1]; crop plant, post-emergence, 1.25 g/ha): 10%
SMILES: Cn1c(C(F)(F)F)cc(=O)n(-c2cc(Oc3ccccc3OCC(=O)OCC3(C#N)CC3)c(Cl)cc2F)c1=O [I.7-7]
Post-emergence effect at 5 g/ha against MATIN in % ([2]; 5 g/ha): 100% | Post-emergence effect at 20 g/ha against MATIN in % ([2]; 20 g/ha): 100% | Post-emergence effect at 5 g/ha against DIGSA in % [3]: 100% | Post-emergence effect at 20 g/ha against DIGSA in % [3]: 100% | Post-emergence effect at 5 g/ha against POLCO in % ([4]; 5 g/ha): 100% | Post-emergence effect at 20 g/ha against POLCO in % ([4]; 20 g/ha): 100% | Post-emergence effect at 5 g/ha against ABUTH in % ([5]; 5 g/ha): 100% | Post-emergence effect at 20 g/ha against ABUTH in % ([5]; 20 g/ha): 100% | Post-emergence effect at 1.25 g/ha against KCHSC in % (Bassia scoparia (KCHSC)): 100% | Post-emergence effect at 5 g/ha against KCHSC in % (Bassia scoparia (KCHSC)): 100% | Post-emergence effect at 20 g/ha against KCHSC in % (Bassia scoparia (KCHSC)): 100% | Post-emergence effect at 5 g/ha against ECHCG in % [6]: 100% | Post-emergence effect at 20 g/ha against ECHCG in % ([6]; 20 g/ha): 100% | Post-emergence effect at 5 g/ha against ALOMY in % ([7]; 5 g/ha): 80% | Post-emergence effect at 20 g/ha against ALOMY in % ([7]; 20 g/ha): 100% | Post-emergence effect at 20 g/ha against LOLRI in % (Lolium rigidum (LOLRI)): 100% | Post-emergence effect at 1.25 g/ha against VIOTR in % (Viola tricolor (VIOTR)): 100% | Post-emergence effect at 5 g/ha against VIOTR in % (Viola tricolor (VIOTR)): 100% | Post-emergence effect at 20 g/ha against VIOTR in % (Viola tricolor (VIOTR); 20 g/ha): 100% | Post-emergence effect at 1.25 g/ha against SETVI in % (Setaria viridis (SETVI)): 100% | Post-emergence effect at 5 g/ha against SETVI in % (Setaria viridis (SETVI); 5 g/ha): 100% | Post-emergence effect at 20 g/ha against SETVI in % (Setaria viridis (SETVI); 20 g/ha): 100% | Post-emergence effect at 1.25 g/ha against PHBPU in % ([8]; 1.25 g/ha): 100% | Post-emergence effect at 5 g/ha against PHBPU in % ([8]; 5 g/ha): 100% | Post-emergence effect at 20 g/ha against PHBPU in % ([8]; 20 g/ha): 100% | Post-emergence effect at 1.25 g/ha against VERPE in % (Veronica persica (VERPE)): 100% | Post-emergence effect at 5 g/ha against VERPE in % (Veronica persica (VERPE); 5 g/ha): 100% | Post-emergence effect at 20 g/ha against VERPE in % (Veronica persica (VERPE); 20 g/ha): 100% | Post-emergence effect at 1.25 g/ha against AMARE in % ([9]; 1.25 g/ha): 100% | Post-emergence effect at 5 g/ha against AMARE in % ([9]; 5 g/ha): 100% | Post-emergence effect at 20 g/ha against AMARE in % ([9]; 20 g/ha): 100%

Post-emergence effect at 1.25 g/ha against TRZAS in % ([1]; Triticum aestivum, in vivo): 20%
SMILES: Cn1c(C(F)(F)F)cc(=O)n(-c2cc(Oc3ccccc3OCC(=O)OCC3CCC3)c(Cl)cc2F)c1=O [I.7-10, Cyclobutylmethyl (2-{2-chloro-4-fluoro-5-[3-methyl-2,6-dioxo-4-(trifluoromethyl)-3,6-dihydropyrimidin-1(2H)-yl]phenoxy}phenoxy)acetate]
pest or weed control at 20 g/ha ([2]; Tripleurospermum inodorum, 504 h, 20 g/ha, read-out: Post-emergence effect at 20 g/ha against MATIN in %): 100% | Post-emergence effect at 1.25 g/ha against DIGSA in % ([3]; 1.25 g/ha): 80% | Post-emergence effect at 5 g/ha against DIGSA in % [3]: 100% | Post-emergence effect at 20 g/ha against DIGSA in % [3]: 100% | Post-emergence effect at 1.25 g/ha against POLCO in % ([4]; 1.25 g/ha): 100% | pest or weed control at 5 g/ha ([4]; Fallopia convolvulus, 504 h, 5 g/ha, read-out: Post-emergence effect at 5 g/ha against POLCO in %): 100% | pest or weed control at 20 g/ha ([4]; Fallopia convolvulus, 504 h, 20 g/ha, read-out: Post-emergence effect at 20 g/ha against POLCO in %): 100% | Post-emergence effect at 1.25 g/ha against ABUTH in % ([5]; 1.25 g/ha): 100% | pest or weed control at 5 g/ha ([5]; Abutilon theophrasti, 504 h, 5 g/ha, read-out: Post-emergence effect at 5 g/ha against ABUTH in %): 100% | pest or weed control at 20 g/ha ([5]; Abutilon theophrasti, 504 h, 20 g/ha, read-out: Post-emergence effect at 20 g/ha against ABUTH in %): 100% | Post-emergence effect at 1.25 g/ha against KCHSC in % (Bassia scoparia (KCHSC)): 100% | Post-emergence effect at 5 g/ha against KCHSC in % (Bassia scoparia (KCHSC)): 100% | Post-emergence effect at 20 g/ha against KCHSC in % (Bassia scoparia (KCHSC)): 100% | Post-emergence effect at 1.25 g/ha against ECHCG in % ([6]; 1.25 g/ha): 100% | Post-emergence effect at 5 g/ha against ECHCG in % [6]: 100% | pest or weed control at 20 g/ha ([6]; Echinochloa crus-galli, 504 h, 20 g/ha, read-out: Post-emergence effect at 20 g/ha against ECHCG in %): 100% | pest or weed control at 20 g/ha ([7]; Alopecurus myosuroides, 504 h, 20 g/ha, read-out: Post-emergence effect at 20 g/ha against ALOMY in %): 100% | Post-emergence effect at 20 g/ha against LOLRI in % (Lolium rigidum (LOLRI)): 100% | Post-emergence effect at 1.25 g/ha against VIOTR in % (Viola tricolor (VIOTR)): 100% | Post-emergence effect at 5 g/ha against VIOTR in % (Viola tricolor (VIOTR)): 100% | pest or weed control at 20 g/ha (Viola tricolor (VIOTR); Viola tricolor, 504 h, 20 g/ha, read-out: Post-emergence effect at 20 g/ha against VIOTR in %): 100% | Post-emergence effect at 1.25 g/ha against SETVI in % (Setaria viridis (SETVI)): 100% | pest or weed control at 5 g/ha (Setaria viridis (SETVI); Setaria viridis, 504 h, 5 g/ha, read-out: Post-emergence effect at 5 g/ha against SETVI in %): 100% | pest or weed control at 20 g/ha (Setaria viridis (SETVI); Setaria viridis, 504 h, 20 g/ha, read-out: Post-emergence effect at 20 g/ha against SETVI in %): 100% | pest or weed control at 5 g/ha ([8]; Ipomoea purpurea, 504 h, 5 g/ha, read-out: Post-emergence effect at 5 g/ha against PHBPU in %): 100% | pest or weed control at 20 g/ha ([8]; Ipomoea purpurea, 504 h, 20 g/ha, read-out: Post-emergence effect at 20 g/ha against PHBPU in %): 100% | Post-emergence effect at 1.25 g/ha against VERPE in % (Veronica persica (VERPE)): 100% | pest or weed control at 5 g/ha (Veronica persica (VERPE); Veronica persica, 504 h, 5 g/ha, read-out: Post-emergence effect at 5 g/ha against VERPE in %): 100% | pest or weed control at 20 g/ha (Veronica persica (VERPE); Veronica persica, 504 h, 20 g/ha, read-out: Post-emergence effect at 20 g/ha against VERPE in %): 100% | pest or weed control at 1.25 g/ha ([9]; Amaranthus retroflexus, 504 h, 1.25 g/ha, read-out: Post-emergence effect at 1.25 g/ha against AMARE in %): 100% | pest or weed control at 5 g/ha ([9]; Amaranthus retroflexus, 504 h, 5 g/ha, read-out: Post-emergence effect at 5 g/ha against AMARE in %): 100% | pest or weed control at 20 g/ha ([9]; Amaranthus retroflexus, 504 h, 20 g/ha, read-out: Post-emergence effect at 20 g/ha against AMARE in %): 100%
